Columns and labels:
[1] = Equol-producing postmenopausal women, purified supplement; cited from earlier work
[2] = Serum Equol levels of mice given soy hydrogel and probiotic via drinking water; assay type: in vivo; details: mouse, oral, positive control: Equol supplemented directly in hydrogel, no Nissle strains
Description: Serum Equol levels of the mice were measured after 1 week of consumption of a low or high soy content supplement (1× or 8× soy loaded hydrogel). […] Two sets of negative controls were provided as reference. […] In addition, a positive control group consumed Equol that was supplement directly in the hydrogel to reveal, as expected, a very high elevation in serum Equol concentration reaching almost 5 μM without the addition of the engineered Nissle P1 and Nissle P2 strains.

ERbeta = ERbeta (Homo sapiens, UniProt Q92731); details: unlike products activating ERalpha, androgen, glucocorticoid, progesterone, mineralocorticoid receptors; cited from earlier work
Chain of ERbeta (Q92731 whole entry, species assumed): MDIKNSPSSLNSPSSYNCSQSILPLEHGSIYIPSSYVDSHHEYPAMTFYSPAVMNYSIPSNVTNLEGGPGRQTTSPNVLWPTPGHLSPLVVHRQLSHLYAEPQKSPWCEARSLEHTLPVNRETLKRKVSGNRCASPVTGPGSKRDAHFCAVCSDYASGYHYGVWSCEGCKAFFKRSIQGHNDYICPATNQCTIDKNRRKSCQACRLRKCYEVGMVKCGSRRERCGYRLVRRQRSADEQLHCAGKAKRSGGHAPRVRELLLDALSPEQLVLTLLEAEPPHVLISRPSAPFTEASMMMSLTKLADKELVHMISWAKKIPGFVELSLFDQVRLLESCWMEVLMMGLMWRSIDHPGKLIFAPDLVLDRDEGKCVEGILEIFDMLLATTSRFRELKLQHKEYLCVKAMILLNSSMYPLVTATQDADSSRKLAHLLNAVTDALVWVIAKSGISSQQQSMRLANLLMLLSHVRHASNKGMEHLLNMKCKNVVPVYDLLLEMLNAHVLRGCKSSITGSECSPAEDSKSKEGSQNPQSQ

concentration at 1 week [2] [µM]	SMILES	effect on serum LDL-C and C-reactive protein [1]	receptor selectivity (ERbeta)
–	O=c1c(-c2ccc(O)cc2)coc2cc(O)ccc12 [Daidzein]	not seen	–
~5	Oc1ccc([C@H]2COc3cc(O)ccc3C2)cc1 [Equol]	–	selective agonist for ERbeta

Source: patent US20240390432A1, “ENGINEERED VECTORS AND ORGANISMS CONTAINING THE SAME FOR ISOFLAVONE CONVERSION IN THE GUT” (Board of Regents, The University of Texas System, priority 2021, published 2024)
